Measured values from patent US7303915B2, “In vitro-differentiated retinal ganglion cells and method for producing same” (Wisconsin Alumni Research Foundation, priority 2005, dated 2007).
Residues, ends and D or L forms follow the SMILES beside them. *: point of attachment. Cbz = O=C(OCc1ccccc1)*; CH2F = FC*

Legend:
[1] = test system: RGC-5 cells; assay: Morphological differentiation and neurite count of RGC-5 cells; conditions: for morphological evidence of differentiation: apoptosis inducer; for rounding of the cell soma: specific kinase inhibitors on RGC-5 cells
Method: Cell culture: RGC-5 cells were cultured in Dulbecco's modification of Eagle's medium (DMEM; Mediatech, Inc.; Herndon, Calif.) containing 1 mg/L glucose with L-glutamine, supplemented with 10% FBS, 100 U/ml penicillin and 100 μg/ml streptomycin. Cells were incubated at 37° C. in humidified 5% CO2.
Pharmacological agents were used to induce or to inhibit various signaling pathways within RGC-5 cells. Cells were replated on 12 mm round cover glass in 24 well plates 24 hours prior to pharmacological treatment. Drugs were added for varying lengths of time and then processed for immunocytochemistry.
Cell morphology: Photomicrographs were taken at 400× total magnification with Nomarski optics, digitized as above, and stored as JPEG images. The pictures were then batch analyzed off-line to assess the development of neurites. A total of fifty cells from each condition were analyzed. The fifty cells assessed for neurite outgrowth in each condition were selected to include all cells in each photomicrograph for which the neurite tree was visible, and continuing with a new photomicrograph until fifty cells were analyzed. Projections from the cell were classified as neurites if they were equal or greater in length than the cell soma. Only branches arising from the soma were counted. The neurite counts were expressed as mean±S.E.M.

[2] = test system: RGC-5 cells; assay: Cell number by MTT assay; assay type: cell-based, rat
Method: Cell number: Cells were plated in 96 well plates and 3-(4,5-dimethylthiazol-2-yl)-2,5-diphenyltetrazolium bromide (MTT) added immediately to a final concentration of 500 μg/ml. Plates were incubated for 5 hours at 37° C. The media was then replaced with 200 μl of DMSO, which was pipetted up and down to dissolve the formazan crystals, and the plate incubated at 37° C. for 5 minutes. Absorbance was measured at 550 nm on a THERMOmax™ microplate reader (Molecular Devices; Sunnyvale, Calif.). All readings were normalized to a standard curve derived from known numbers of cells.

[3] = test system: NMDA-R1; assay: Immunocytochemistry for NMDA-R1 in RGC-5 cells; assay type: cell-based, rat; conditions: differentiated vs undifferentiated cells, twenty-four hours
Method: (§1) Immunocytochemistry: Differentiated RGC-5 cells plated on coverslips were fixed with 4% paraformaldehyde (Fisher) in PBS, pH 7.2 for 20 minutes at room temperature, rapidly rinsed with Tris-buffered saline (TBS; 100 mM Tris, pH 7.6, 0.9% NaCl) 3 times for a few seconds each and 2 times for 5 minutes each, and blocked with 5% normal goat serum (BioWhittaker) in TBS for 30 minutes at room temperature. The NMDA-R1 receptor was detected by incubating with purified mouse monoclonal anti-NMDA-R1 antibody (BD Biosciences; San Jose, Calif.; clone 54.1) at 2.5 μg/ml overnight at room temperature, followed by Alexa Fluor™ 594 goat anti-mouse IgG at 10 μg/ml in blocking buffer at room temperature for 90 minutes. Alexa Fluor™ 594 fluorescence was detected with a Texas Red filter set (excitation 560±20 nm, dichroic 595 nm long-pass, emission 630±30 nm). Thy-1 was detected after fixing and blocking by incubating with rabbit anti-Thy-1 polyclonal IgG (Santa Cruz Biotechnology; Santa Cruz, Calif.) at 20 μg/ml overnight at 4° C., followed by Alexa Fluor 488 goat anti-rabbit IgG at 4 μg/ml at room temperature for 60 minutes. Alexa Fluor 488 fluorescence was detected with a FITC filter set (excitation 470±20 nm, dichroic 505 nm long-pass, emission 540±20 nm) filter set. […]

[4] = test system: Thy-1; assay: Immunocytochemistry for Thy-1 in RGC-5 cells; assay type: cell-based, rat; conditions: differentiated vs undifferentiated cells, twenty-four hours
Method: as §1

[5] = test system: RGC-5 cells; assay: Whole-cell voltage-clamp recording of RGC-5 cells; assay type: cell-based, rat; conditions: for conductance of outward currents at +90 mV: after leak subtraction
Method: No series resistance compensation was used. Currents were low-pass filtered at 1-5 kHz with a four-pole Bessel filter, and digitized at a rate no less than twice the filter frequency. […] Analysis and curve fitting was also performed using AxoGraph.
Voltage-gated currents were studied by applying 10 ms voltage steps from −100 to +90 mV in 10 mV increments, from a holding potential of −60 mV. This protocol was run 2-6 times on each cell and the currents evoked at each potential were averaged. Passive leak and capacitive currents were removed by scaling the average current evoked at −70 mV, and subtracting the result from the average current obtained at each voltage. Current amplitudes were measured at steady-state (i.e., near the end of the voltage step), and the slope conductance was computed as the difference between successive amplitudes, divided by the 10 mV step increment.

[6] = test system: RGC-5 cells; assay: Nuclear condensation changes of apoptosis (Hoechst 33258); assay type: cell-based, rat; conditions: twenty-four hour incubation, Hoechst 33258 10 μg/ml for thirty minutes
[7] = test system: focal adhesion kinase (FAK) S722; assay: Kinetworks KPSS 2.1 phosphorylation screen, FAK S722; assay type: cell-based, rat; conditions: 1 μM for 5 minutes
Method: (§2) Cells were washed with ice-cold PBS, scraped, and centrifuged at 3,200 g for five minutes. The pellets were resuspended in lysis buffer (Kinexus Bioinformatics; Vancouver, BC, Canada) supplemented with 5 mM pepstatin A (Roche; Indianapolis, Ind.), and Complete mini protease inhibitor cocktail (Roche). The suspensions were sonicated on ice for two 15-second bursts, followed by centrifugation at 100,000 g for 30 minutes at 4° C. […] These were then transferred to nitrocellulose membranes. Using a twenty-lane multiblotter (BioRad; Hercules, Calif.), the membranes were incubated with different mixtures of up to three antibodies per lane that react with a distinct subset of at least thirty-seven known phosphorylated sites of cell signaling proteins of distinct molecular masses. After further incubation with a mixture of relevant HRP conjugated secondary antibodies (Santa Cruz Biotechnology), the blots were developed using ECL Plus reagent (Amersham Pharmacia; Piscataway, N.J.) and signals quantified using Quantity One software (BioRad). Detailed information and protocols of the Kinetworks™ analysis can be found at the Kinexus Bioinformatics Corporations website.

[8] = test system: c-Kit Y703; assay: Kinetworks KPSS 2.1 phosphorylation screen, c-Kit Y703; assay type: cell-based, rat; conditions: 1 μM for 5 minutes
Method: (§3) Analysis of kinasephosphorylation targets: Total cell lysates were prepared as described in Zhang H, et al., J Biol Chem 276:6905-6908 (2001). Cells were washed with ice-cold PBS, scraped, and centrifuged at 3,200 g for five minutes. The pellets were resuspended in lysis buffer (Kinexus Bioinformatics; Vancouver, BC, Canada) supplemented with 5 mM pepstatin A (Roche; Indianapolis, Ind.), and Complete mini protease inhibitor cocktail (Roche). The suspensions were sonicated on ice for two 15-second bursts, followed by centrifugation at 100,000 g for 30 minutes at 4° C. […] Bradford M M, Anal Biochem 72:248-254 (1976). These were then transferred to nitrocellulose membranes. Using a twenty-lane multiblotter (BioRad; Hercules, Calif.), the membranes were incubated with different mixtures of up to three antibodies per lane that react with a distinct subset of at least thirty-seven known phosphorylated sites of cell signaling proteins of distinct molecular masses. After further incubation with a mixture of relevant HRP conjugated secondary antibodies (Santa Cruz Biotechnology), the blots were developed using ECL Plus reagent (Amersham Pharmacia; Piscataway, N.J.) and signals quantified using Quantity One software (BioRad). Detailed information and protocols of the Kinetworks™ analysis can be found at the Kinexus Bioinformatics Corporations website.

[9] = test system: ERK1 T202/Y204; assay: Kinetworks KPSS 2.1 phosphorylation screen, ERK1 T202/Y204; assay type: cell-based, rat; conditions: 1 μM for 5 minutes
Method: as §3

[10] = test system: CDK1 T14/Y15; assay: Kinetworks KPSS 2.1 phosphorylation screen, CDK1 T14/Y15; assay type: cell-based, rat; conditions: 1 μM for 5 minutes
Method: as §3

[11] = test system: MEK1 S298; assay: Kinetworks KPSS 2.1 phosphorylation screen, MEK1 S298; assay type: cell-based, rat; conditions: 1 μM for 5 minutes
Method: as §2

[12] = test system: PKR T451; assay: Kinetworks KPSS 2.1 phosphorylation screen, PKR T451; assay type: cell-based, rat; conditions: 1 μM for 5 minutes
Method: as §3

[13] = test system: Thy-1; assay: Immunoblot analysis of Thy-1 in RGC-5 cells; conditions: 316 nM for three days
Method: (§4) After transfer, the membrane was blocked with 5% non-fat milk in TBS (pH 8.0) for 30-60 minutes, and then probed with primary antibodies to RGC marker proteins in blocking buffer. Antibodies used included purified rabbit polyclonal anti-microtubule-associated protein 2 (1:2000; Chemicon; Temecula, Calif.), polyclonal rabbit anti-Thy-1 (1:100; Santa Cruz Biotechnology), and polyclonal rabbit anti-actin (1:1000; Sigma). Blots were rinsed 3 times with TBS containing 0.05% Tween-20 (Fisher Scientific), then washed 5 times for 10 minutes each at room temperature on an orbital shaker. Secondary antibodies used were purified HRP-conjugated goat anti-rabbit IgG and purified HRP-conjugated goat anti-mouse IgG (1:5000; Jackson Immunoresearch Laboratories; West Grove, Pa.), and were incubated for 1 hour at room temperature, followed by 3 rinses and five 10 minute washes with TBS containing Tween-20 at room temperature on an orbital shaker. […] The blots were then exposed to Kodak BioMax XAR film (Eastman Kodak Company; Rochester, N.Y.) and developed. The films were scanned at 1600 dpi and band density was determined by comparing total intensity in an area containing the band of interest to the intensity of an equal size area of background using NIH ImageJ software. Band density readings are presented with respect to the density of the band from the control, untreated cell condition.

[14] = test system: microtubule-associated protein 2 (MAP-2); assay: Immunoblot analysis of MAP-2 in RGC-5 cells; conditions: 316 nM for three days
Method: as §4

[15] = molecular target: Rho-Kinase; conditions: cited from earlier work
[16] = molecular target: PKA; conditions: read-out: Ki protein kinase A; cited from earlier work
[17] = 1 hr [24 hr], cells with large conductance

For `C/C=C(/C)C(=O)O[C@H]1C(C)=C2[C@H]([C@@H]1OC(=O)CCCCCCC)[C@@](C)(OC(C)=O)C[C@H](OC(=O)CCC)[C@@]1(O)[C@H]2OC(=O)[C@@]1(C)O` [thapsigargin, Thapsigargin], the cell shape ([1]; 10 μM) was “did cause cells to become more spindle-shaped” and the “morphological evidence of differentiation” value ([1]; 10 μM) was “None resulted in morphological evidence of differentiation”.

For `COC(=O)C[C@H](NC(=O)[C@H](C)NC(=O)[C@@H](NC(=O)OCc1ccccc1)C(C)C)C(=O)CF` [ZVAD-fmk] (Cbz-Val-Ala-Asp(OMe)-CH2F), the “effect of pretreatment on differentiation with SS” value [1] was “did not inhibit differentiation with SS” and the “differentiation of undifferentiated cells by the agent alone” value ([1]; without staurosporine) was “did not differentiate”.

For `CN[C@@H]1C[C@H]2O[C@@](C)([C@@H]1OC)n1c3ccccc3c3c4c(c5c6ccccc6n2c5c31)C(=O)NC4` [staurosporine], the “cell number (MTT)” value ([2]; 1 hour after culture) was 7133±266 cells, the “cell number (MTT)” value ([2]; twenty-four hours) was 10,094±1023 cells and the NMDA-R1 labeling [3] was “visibly more intense staining”. For the same compound, the Thy-1 labeling [4] was “visibly more intense staining”, the “conductance of outward currents at +90 mV” value (from here on “conductance … at +90 mV”) ([5]; 1 hr [24 hr], untreated 3.1±0.5) was 14±5 nS and the “apparent half-activation voltage (Boltzmann fit)” value [5, 17] was “+48 mV”. The “maximal conductance (Boltzmann fit)” value [5, 17] was 26 nS, the apparent capacitance ([5]; 1 hr [24 hr], untreated 28±2) was 31±5 pF and the resting potential ([5]; 1 hr [24 hr], untreated −34±0.5) was −27±9 mV. The resting potential ([5]; 1 hr [48 hr]) was −9±6 mV, the “conductance … at +90 mV” value ([5]; 1 hr [48 hr]) was 7±3 nS and the input resistance ([5]; 1 hr [48 hr], n=4) was 322±89 MΩ. For the same compound, the apparent capacitance ([5]; 1 hr [48 hr], p<0.05) was 44±3 pF, the apparent capacitance ([5]; 22 hr [2 hr]) was 38±3 and the resting potential ([5]; 22 hr [2 hr]) was −11±3. For the same compound, the “conductance … at +90 mV” value ([5]; 22 hr [2 hr]) was 5±3 nS, the “nuclear condensation (Hoechst 33258)” value [6] was “the same as controls, with finely granular nuclei that were not compacted” and the “increase in phosphorylation of S722 of FAK vs sham-treated cells” value [7] was 90%. The “increase in phosphorylation of c-Kit Y703 vs control” value [8] was 43%, the “phosphorylation of ERK1 T202/Y204 vs control” value [9] was “not present in control” and the “increase in phosphorylation of CDK1 T14/Y15 vs control” value [10] was 64%. The “decrease in phosphorylation of MEK1 S298 vs control” value [11] was 100%, the “decrease in phosphorylation of PKR T451 vs control” value [12] was 100% and the “Thy-1 level (Western blot)” value [13] was “increased levels”. The “MAP-2 level (Western blot)” value [14] was “increased levels”, the “differentiation-inducing activity in RGC-5 cells” value (“differentiation-inducing activity” below) [1] was “strong differentiation inducer” and the neurite branching ([1]; 316 nM) was “minimally branched neurites”. For the same compound, the “differentiation after short exposure” value ([1]; 1 μM for sixty seconds, then fresh media until twenty-four hours from treatment) was “definite morphological signs of differentiation”, the “concentrations frequently toxic (necrotic cell body, blebbing and disruption of the neurite tree)” value ([1]; RGC-5 cells) was “higher than 1.78 μM” and the neurites per cell ([1]; RGC-5 cells, 1 μM, average±SEM from 50 cells) was 2.94±0.11 neurites per cell. The “average and total process length” value ([1]; high (3.16 μM) concentration) was “average and total process length decreased somewhat”, the neurite branching ([1]; high (3.16 μM) concentration) was “neurite branching was greater” and the “average and total neurite outgrowth” value ([1]; moderate (1 μM) concentration) was “promoted longer average and total neurite outgrowth”.

With `C=C(C)[C@H]1Cc2c(ccc3c2O[C@@H]2COc4cc(OC)c(OC)cc4[C@@H]2C3=O)O1` [rotenone] the “morphological evidence of differentiation” value ([1]; 10 μM) was “None resulted in morphological evidence of differentiation”.

In the case of `Cc1cncc2cccc(S(=O)(=O)N3CCCNC[C@@H]3C)c12` [H-1152], the Ki [15] is given as 1.6 nM, the “differentiation-inducing activity” value [1] is given as “weak differentiation inducers” and the neurites expressed ([1]; RGC-5 cells, 1 μM) is given as 1.06±0.15 neurites. For the same compound, the “rounding of the cell soma” value [1] was “did not produce rounding of the cell soma”.

For `O=S(=O)(NCCNC/C=C/c1ccc(Br)cc1)c1cccc2cnccc12` [H-89], the Ki [16] is listed as 50 nM, the “differentiation-inducing activity” value [1] is listed as “weak differentiation inducers” and the neurites expressed ([1]; RGC-5 cells, 56.2 μM) is listed as 1.80±0.16 neurites. The “rounding of the cell soma” value [1] was “did not produce rounding of the cell soma”.

In the case of `C[C@H](CCC(=O)O)C[C@H](C)C[C@H](C)C(=O)/C=C(\O)[C@H](C)C[C@H](C)C/C=C/[C@@H](C)[C@@H](O)[C@@H](C)[C@@H](O)C[C@@H]1CC[C@@](C)([C@H]2CC[C@@](C)([C@@H](C)O)O2)O1` [ionomycin], the “nuclear condensation (Hoechst 33258)” value [6] is reported as “induced nuclear condensation” and the “morphological evidence of differentiation” value ([1]; 20 μM) is reported as “None resulted in morphological evidence of differentiation”.
